Experimental data published in patent publication US12600713B2, “Crystalline forms of 6-((6,7-dimethoxyquinazolin-4-yl)oxy)-N,2-dimethylbenzofuran-3-carboxamide” (HUTCHMED LIMITED, priority 2014, dated 2026).

Assay: Stability of Form I under high temperature, high humidity and illumination conditions (influence factor experiment, 10 days)
Type: physicochemical
Description: Determination method: the test sample of Form I prepared in Example 1 was added to a culture dish, which was uncovered and put in a sealed clean container; then the container was placed under the conditions of the temperature of 60° C., the temperature of 25° C. and the relative humidity of 92.5%±5%, and the illumination of 4500 lx±500 lx respectively for 10 days; then sampled, investigated the purity and crystalline form of the sample, and compared the results of the investigation, which were shown in the following table.

SMILES: CNC(=O)c1c(C)oc2cc(Oc3ncnc4cc(OC)c(OC)cc34)ccc12 [Form I, 6-((6,7-dimethoxyquinazolin-4-yl)oxy)-N,2-dimethylbenzofuran-3-carboxamide]
- Purity A% (0 day (initial sample, Form I of Example 1)): 98.94 A%
- Purity A% (25° C., relative humidity 92.5 ± 5% RH, open dish, 10 days): 98.94 A%
- Purity A% (60° C., open dish, 10 days): 98.94 A%
- chemical purity and crystalline form after storage (stability conclusion) (high temperature, high humidity and illumination conditions for 10 days): not changed
- Purity A% (illumination 4500 lx ± 500 lx, open dish, 10 days): 98.94 A%
